System: ACE2-dependent pseudotypes
Assay type: cell-based

Cc1ccc(S(=O)(=O)Nc2ccc(C(F)(F)F)cc2C(=O)Nc2nc(-c3ccc(Br)cc3)cs2)cc1 [XH161-102 (MS102), N-(4-(4-bromophenyl)thiazol-2-yl)-2-((4-methylphenyl)sulfonamido)-5-(trifluoromethyl)benzamide]
activity in preventing cell entry of ACE2-dependent pseudotypes: enhanced activity
